This is an account of results in patent publication US9302999B2, “Substituted triazoles as herbicides” (E. I. DU PONT DE NEMOURS AND COMPANY, priority 2012, dated 2016).

Holding throughout (format): in vivo
One test relates to rice (Oryza sativa). As to the kind of experiment: Test C flooded paddy test: rice. The note with it: Oryza sativa, scale 0 to 100 (0 no effect, 100 complete control), read-out: Plant response rating, Rice; for plant injury at 62 g/ha: 62 g ai/ha; for plant injury at 125 g/ha: 125 g ai/ha; for plant injury at 250 g/ha: 250 g ai/ha; for plant injury at 31 g/ha: 31 g ai/ha. The essentials:
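Plants at 2-leaf stage in pots flooded 3 cm above soil; compounds applied directly into the paddy water, depth maintained. Visual rating against controls after 13–15 days in greenhouse, scale 0 (no effect) to 100 (complete control).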

The test system of test [1] is surinam grass (Brachiaria decumbens). As to the kind of experiment: Test C pre-/postemergence: surinam grass. The source says: Seeds of plant species selected from blackgrass (Alopecurus myosuroides), bromegrass, downy (downy bromegrass, Bromus tectorum), foxtail, green (green foxtail, Setaria viridis), ryegrass, Italian (Italian ryegrass, Lolium multiflorum), winter wheat (Triticum aestivum), wild oat (Avena fatua), galium (catchweed bedstraw, Galium aparine), bermudagrass (Cynodon dactylon), surinam grass (Brachiaria decumbens), cocklebur (common cocklebur, Xanthium strumarium), corn (Zea mays), large crabgrass (Digitaria sanguinalis), woolly cupgrass (Eriochloa villosa), foxtail, giant (giant foxtail, Setaria faberii), goosegrass (Eleusine indica), johnsongrass (Sorghum halepense), kochia (Kochia scoparia), lambsquarters (Chenopodium album), morningglory (Ipomoea coccinea), nightshade (eastern black nightshade, Solanum ptycanthum), nutsedge, yellow (yellow nutsedge, Cyperus esculentus), pigweed (Amaranthus retroflexus), ragweed (common ragweed, Ambrosia elation), soybean (Glycine max), common (oilseed) sunflower (Helianthus annuus), Russian thistle (Salsola kali) and velvetleaf (Abutilon theophrasti) were planted into a blend of loam soil and sand and treated preemergence with test chemicals formulated in a non-phytotoxic solvent mixture which included a surfactant.
(§1) At the same time, plants selected from these crop and weed species and also barley (winter barley, Hordeum vulgare), canarygrass (Phalaris minor), chickweed (common chickweed, Stellaria media) windgrass (Apera spica-venti) and deadnettle (henbit deadnettle, Lamium amplexicaule) were planted in pots containing Redi-Earth® planting medium (Scotts Company, 14111 Scottslawn Road, Marysville, Ohio 43041) comprising spaghnum peat moss, vermiculite, wetting agent and starter nutrients and treated with postemergence applications of test chemicals formulated in the same manner. Plants ranged in height from 2 to 18 cm (1- to 4-leaf stage) for postemergence treatments.
(§2) Treated plants and controls were maintained in a greenhouse for 13 to 15 days, after which time all species were compared to controls and visually evaluated. Plant response ratings, summarized in Table C, are based on a scale of 0 to 100 where 0 is no effect and 100 is complete control. A dash (-) response means no test result.

The test system of test [2] is barley (winter barley, Hordeum vulgare). As to the kind of experiment: Test C postemergence: barley.
Text: as §1, §2

The subject of test [3] is blackgrass (Alopecurus myosuroides). Put plainly: Test D pre-/postemergence: blackgrass. An excerpt:
(§3) Seeds of plant species selected from bluegrass (annual bluegrass, Poa annua), blackgrass (Alopecurus myosuroides), canarygrass (Phalaris minor), chickweed (common chickweed, Stellaria media), galium (catchweed bedstraw, Galium aparine), bromegrass, downy (downy bromegrass, Bromus tectorum), field poppy (Papaver rhoeas), field violet (Viola arvensis), foxtail, green (green foxtail, Setaria viridis), deadnettle (henbit deadnettle, Lamium amplexicaule), ryegrass, Italian (Italian ryegrass, Lolium multiflorum), kochia (Kochia scoparia), lambsquarters (Chenopodium album), oilseed rape (Brassica napus), pigweed (Amaranthus retroflexus), Russian thistle (Salsola iberica), chamomile (scentless chamomile, Matricaria inodora), speedwell (bird's-eye speedwell, Veronica persica), barley, spring (spring barley, Hordeum vulgare), wheat, spring (spring wheat, Triticum aestivum), buckwheat, wild (wild buckwheat, Polygonum convolvulus), mustard, wild (wild mustard, Sinapis arvensis), oat, wild (wild oat, Avena fatua), radish, wild (wild radish, Raphanus raphanistrum), windgrass (Apera spica-venti), barley, winter (winter barley, Hordeum vulgare), and wheat, winter (winter wheat, Triticum aestivum) were planted into a silt loam soil and treated preemergence with test chemicals formulated in a non-phytotoxic solvent mixture which included a surfactant. At the same time, these same crop and weed species were planted in pots containing the planting medium comprising spaghnum peat moss, vermiculite, wetting agent and starter nutrients and treated with postemergence applications of the test chemicals formulated in the same manner. Plants ranged in height from 2 to 18 cm (1- to 4-leaf stage).
(§4) Treated plants and controls were maintained in a controlled growth environment for 14 to 21 days after which time all species were compared to controls and visually evaluated. Plant response ratings, summarized in Table D, are based on a scale of 0 to 100 where 0 is no effect and 100 is complete control. A dash (-) response means no test result.

In test [4] the test system is chickweed (common chickweed, Stellaria media). Put plainly: Test D pre-/postemergence: chickweed.
Text: as §3, §4

In test [5] the test system is ryegrass, Italian (Italian ryegrass, Lolium multiflorum). As to the kind of experiment: Test D pre-/postemergence: ryegrass, Italian.
Text: as §3, §4

The test system of test [6] is Russian thistle (Salsola iberica). Put plainly: Test D pre-/postemergence: Russian thistle. The following applies: Postemergence.
Text: as §3, §4

Test [7] has as its system buckwheat, wild (wild buckwheat, Polygonum convolvulus). Put plainly: Test D pre-/postemergence: buckwheat, wild.
Text: as §3, §4

[8] abbreviates: Flood (flooded paddy test), visual rating after 13 to 15 days.
Setting [9] is: Postemergence, 31 g ai/ha, scale 0 to 100 (0 no effect, 100 complete control).
Setting [10] is: Postemergence, 62 g ai/ha, scale 0 to 100 (0 no effect, 100 complete control).
The mark [11] stands for this setting: Postemergence, 125 g ai/ha, scale 0 to 100, 0 no effect, 100 complete control.
[12] abbreviates: Postemergence, 250 g ai/ha, scale 0 to 100.
Where [13] appears, read: Preemergence, 31 g ai/ha, scale of 0 to 100, 0 is no effect, 100 is complete control.
Setting [14] is: Preemergence, 62 g ai/ha, scale of 0 to 100, 0 is no effect, 100 is complete control.
Setting [15] is: Preemergence, 125 g ai/ha, scale 0 to 100, 0 no effect, 100 complete control.
The mark [16] stands for this setting: Preemergence, 250 g ai/ha, scale 0 to 100, 0 no effect, 100 complete control.
[17] abbreviates: 31 g ai/ha, scale 0 to 100 (0 no effect, 100 complete control).
The mark [18] stands for this setting: 62 g ai/ha, scale 0 to 100 (0 no effect, 100 complete control).
The mark [19] stands for this setting: 125 g ai/ha, scale 0 to 100, 0 no effect, 100 complete control.
The mark [20] stands for this setting: Postemergence, 16 g ai/ha, scale 0 to 100.
[21] abbreviates: Preemergence, 16 g ai/ha, scale 0 to 100 (0 no effect, 100 complete control).
[22] abbreviates: Preemergence, 31 g ai/ha, scale 0 to 100 (0 no effect, 100 complete control).
Where [23] appears, read: Preemergence, 62 g ai/ha, scale 0 to 100.
The mark [24] stands for this setting: Preemergence, 125 g ai/ha, scale 0 to 100.

Like-named read-outs stand apart in the source and are kept apart here.

As to `COc1nn(-c2ccc(C(F)(F)F)cc2)nc1Cn1ccc(C(F)(F)F)n1` [Compound 17, 4-methoxy-2-[4-(trifluoromethyl)phenyl]-5-[[3-(trifluoromethyl)-1H-pyrazol-1-yl]methyl]-2H-1,2,3-triazole], in the test with rice (Oryza sativa) (setting [8]), the plant injury at 62 g/ha is 15%, the plant injury at 125 g/ha stood at 35% and the plant injury at 250 g/ha stood at 45%. Moreover, the plant injury at 31 g/ha with rice (Oryza sativa) (Flood) was found to be 10%.
With `Cc1nn(-c2ccc(C(F)(F)F)cc2)nc1Cc1ccnc(C(F)(F)F)c1` [Compound 47, 4-[[5-methyl-2-[4-(trifluoromethyl)phenyl]-2H-1,2,3-triazol-4-yl]methyl]-2-(trifluoromethyl)pyridine], the “Plant response rating, Surinam Grass” value in test [1] (setting [9]) was found to be 5; in test [1] (setting [10]), 10; in test [1] (setting [11]), 60; in test [1] (setting [12]) it was 60; in test [1] (setting [13]) it was 5; in test [1] (setting [14]), 20. Besides, the “Plant response rating, Surinam Grass” value in test [1] (setting [15]) and in test [1] (setting [16]) was 65 each time. The “Plant response rating, Barley” value in test [2] (setting [17]) is listed as 35; in test [2] (setting [18]), 45; in test [2] (setting [19]), 50; in test [2] (250 g ai/ha, scale 0 to 100) it was 55. In addition, the plant injury at 62 g/ha with rice (Oryza sativa) (setting [8]) turned out to be 50%. In addition, the plant injury at 125 g/ha in the test on rice (Oryza sativa) (setting [8]) came out at 60%. For the same molecule, in the test with rice (Oryza sativa) (setting [8]), the plant injury at 250 g/ha was 60%. Moreover, in the test on rice (Oryza sativa) (Flood), the plant injury at 31 g/ha stood at 30%.
As to `CCc1nn(-c2ccc(C(F)(F)F)cc2)nc1Oc1cccc(OC(F)(F)F)c1` [Compound 125, 4-ethyl-5-[3-(trifluoromethoxy)phenoxy]-2-[4-(trifluoromethyl)phenyl]-2H-1,2,3-triazole], in the test with rice (Oryza sativa) (setting [8]), the plant injury at 125 g/ha stood at 0% and the plant injury at 250 g/ha is 10%. For the same molecule, in the test with rice (Oryza sativa) (Flood), the plant injury at 31 g/ha was determined as 0% and the plant injury at 62 g/ha came to 0%.
With `Fc1ccc(-n2nc(Cc3ccnc(C(F)(F)F)c3)c(OCC(F)(F)F)n2)cc1` [Compound 142], the “Plant response rating, Surinam Grass” value worked out at 40 in test [1] (setting [9]); 40 in test [1] (setting [10]); 45 in test [1] (setting [11]); 50 in test [1] (setting [12]); 60 in test [1] (setting [13]); 75 in test [1] (setting [14]). Moreover, the “Plant response rating, Surinam Grass” value in test [1] (setting [15]) and in test [1] (setting [16]) was 98 in each case. Moreover, the “Plant response rating, Barley” value in test [2] (setting [17]) was found to be 20; in test [2] (setting [18]) it was 35; in test [2] (setting [19]), 40; in test [2] (250 g ai/ha, scale 0 to 100), 45.
Turning to `Cc1nn(-c2ccc(F)c(C(F)(F)F)c2)nc1Oc1ccnc(C(F)(F)F)c1` [Compound 147], the “Plant response rating, Surinam Grass” value in test [1] (setting [13]) turned out to be 55; in test [1] (setting [14]) it was 80; in test [1] (setting [15]), 95; in test [1] (setting [16]), 95. Further, the entries for the “Plant response rating: Blackgrass” value in test [3] (setting [9]), in test [3] (setting [10]) and in test [3] (setting [11]) were 25, 30 and 60, respectively. Moreover, the “Plant response rating, Blackgrass” value turned out to be 15 in test [3] (setting [20]); 0 in test [3] (setting [21]); 0 in test [3] (setting [22]); 30 in test [3] (setting [23]); 40 in test [3] (setting [24]). Besides, the “Plant response rating: Chickweed” value in test [4] (setting [9]) stood at 70; in test [4] (setting [10]) it was 80; in test [4] (setting [11]), 80. The “Plant response rating, Chickweed” value is listed as 60 in test [4] (setting [20]); 35 in test [4] (setting [21]); 85 in test [4] (setting [22]); 70 in test [4] (setting [23]); 100 in test [4] (setting [24]). Further, the entries for the “Plant response rating: Ryegrass, Italian” value in test [5] (setting [9]), in test [5] (setting [10]) and in test [5] (setting [11]) were 10, 15 and 35, respectively. Besides, the “Plant response rating, Ryegrass, Italian” value in test [5] (setting [20]) came to 5; in test [5] (setting [21]), 0; in test [5] (setting [22]), 5; in test [5] (setting [23]), 15; in test [5] (setting [24]), 30. Further, the “Plant response rating: Russian Thistle” value amounted to 85 in test [6] (setting [17]), 80 in test [6] (setting [18]) and 80 in test [6] (setting [19]). The “Plant response rating, Russian Thistle” value in test [6] (16 g ai/ha, scale 0 to 100) came to 45. Besides, the results for the “Plant response rating: Buckwheat, Wild” value in test [7] (setting [9]), in test [7] (setting [10]) and in test [7] (setting [11]) were 50, 65 and 70, respectively. Also, the “Plant response rating, Buckwheat, Wild” value in test [7] (setting [20]) turned out to be 45; in test [7] (setting [21]), 15; in test [7] (setting [22]) it was 10; in test [7] (setting [23]) it was 30; in test [7] (setting [24]), 100.
